How the values were obtained:
[1] = biological target: T1, nicotinamide N-methyltransferase (NNMT) (Homo sapiens, UniProt P40261); assay: NNMT concentration-response assay (MNAN and SAH product readouts), Eli Lilly OIDD; enzyme source not stated in main text; assay type: biochemical
T1 sequence (P40261 1-264): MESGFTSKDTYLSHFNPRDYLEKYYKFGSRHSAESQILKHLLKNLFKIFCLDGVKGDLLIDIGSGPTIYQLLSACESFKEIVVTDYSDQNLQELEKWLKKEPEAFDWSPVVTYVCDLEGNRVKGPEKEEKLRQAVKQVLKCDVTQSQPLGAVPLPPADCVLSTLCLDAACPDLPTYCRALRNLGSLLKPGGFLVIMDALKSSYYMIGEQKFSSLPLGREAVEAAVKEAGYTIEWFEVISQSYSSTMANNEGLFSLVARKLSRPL

[2] = tested on: T2, Acinetobacter baumanii ATCC 19606; assay: microbe, parasite or virus in culture; design: CLSI broth microdilution MIC in 96-well plates, cation-adjusted Mueller-Hinton broth; conditions: Acinetobacter baumannii, ATCC19606
T2 construct: ATCC 19606
Experimental: (§1) The susceptibility of bacterial strains was investigated in collaboration with the Warwick Antimicrobial Screening Facility in a 96-well plate experiment, according to the Clinical & Laboratory Standards Institute (CLSI) guidelines (M7-A9 2012). Scleric acid was diluted to a concentration of 7.5 mg mL^–1 in 25% DMSO in distilled water. […] This was then further doubling diluted throughout the MIC. Meropenem and cefoxitin were used as positive controls during MIC testing. The antimicrobial activity of scleric acid was assessed. Inhibitory activity against representatives of the ESKAPE panel of pathogens: Enterococcus faecium, Staphylococcus aureus, Klebsiella pneumoniae, Acinetobacter baumannii, Pseudomonas aeruginosa, and Enterobacter cloacae was first screened but all strains appeared to be resistant to scleric acid, giving no observable MIC (ESI Table S6 ^†).

[3] = tested on: T3, Enterobacter cloacae NCTC 13405; assay: microbe, parasite or virus in culture; design: CLSI broth microdilution MIC in 96-well plates, cation-adjusted Mueller-Hinton broth; conditions: NCTC13405
T3 construct: NCTC 13405
Experimental: as §1

[4] = tested on: T4, Enterococcus faecium ATCC 12202; assay: microbe, parasite or virus in culture; design: CLSI broth microdilution MIC in 96-well plates, cation-adjusted Mueller-Hinton broth; conditions: ATCC12202
T4 construct: ATCC 12202
Experimental: as §1

[5] = tested on: T5, Klebsiella pneumoniae ATCC 700603; assay: microbe, parasite or virus in culture; design: CLSI broth microdilution MIC in 96-well plates, cation-adjusted Mueller-Hinton broth; conditions: ATCC700603
T5 construct: ATCC 700603
Experimental: as §1

[6] = tested on: T6, Pseudomonas aeruginosa ATCC 27853; assay: microbe, parasite or virus in culture; design: CLSI broth microdilution MIC in 96-well plates, cation-adjusted Mueller-Hinton broth; conditions: ATCC27853
T6 construct: ATCC 27853
Experimental: as §1

[7] = tested on: T7, Staphylococcus aureus USA300; assay: microbe, parasite or virus in culture; design: CLSI broth microdilution MIC in 96-well plates, cation-adjusted Mueller-Hinton broth
T7 construct: USA300 (ATCC BAA-1717)
Experimental: as §1

Compound: O=C(OCC(=O)N1CCC[C@H]1C(=O)O)c1ccccc1 [compound 2, (2-(benzoyloxy)acetyl)-L-proline]
- IC50 [1]: 178 µM
- MIC [2]: > 1020 µg/mL
- MIC [3]: > 1020 µg/mL
- MIC [4]: > 1020 µg/mL
- MIC [5]: > 1020 µg/mL
- MIC [6]: > 1020 µg/mL
- MIC [7]: > 1020 µg/mL

— paper PMC6335953, “Triggering the expression of a silent gene cluster from genetically intractable bacteria results in scleric acid discovery” (Chemical Science, 2018)
